Assay results published in patent publication US11214594B2, “Antimicrobial peptide having synergistic antibacterial effect with antibiotics on multidrug resistant bacteria, and use thereof” (priority 2016, dated 2022).
Converted amounts (≈) assume the structure as drawn. Read-outs that look alike come from different tables or passages of the source. Where a SMILES comes first, the peptide text is derived from it.

Legend:
[1] = system: S. epidermidis; assay: microbe, parasite or virus in culture; assay type: cell-based, Staphylococcus epidermidis
How it was run: (§1)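 Each strain is brought to 2×10^6 CFU in nutrient-sufficient Mueller-Hinton medium and dispensed into wells. Peptide solutions, stepwise diluted 2:1 in the same medium, are then added. The minimal concentration preventing growth gives the MIC.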

[2] = system: E. coli; assay: MIC of antibiotic during combined treatment with antimicrobial peptide; assay type: cell-based, Escherichia coli; conditions: for Antibiotic MIC, Erythromycin / Antibiotic MIC, Linezolid / Antibiotic MIC, Vancomycin: E. coli
How it was run: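 Checkerboard-type MIC of peptide–antibiotic mixtures in MH medium: the antibiotic was serially diluted in MH medium and added to wells, then the reversed arrangement was also tested.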

[3] = system: MDRST 8007; assay: Minimal inhibitory concentration (MIC), single agent; assay type: cell-based, Salmonella typhimurium; conditions: agent alone
How it was run: as §1

[4] = system: E. coli; assay type: cell-based, Escherichia coli; conditions: E. coli
How it was run: (§2)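 Strains in MH medium at 2×10^6 CFU/ml were mixed with peptide diluted stepwise (2:1) from its MIC, then antibiotic dilutions in MH medium were added to give the antibiotic MIC. The reversed set-up, peptide titrated against fixed antibiotic, gave the peptide MIC.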

[5] = system: MDREC 1229; assay type: cell-based, Escherichia coli
How it was run: as §2

[6] = system: A. baumannii; assay: microbe, parasite or virus in culture; assay type: cell-based, Acinetobacter baumannii
How it was run: as §1

[7] = system: MDRAB 12035; assay: microbe, parasite or virus in culture; assay type: cell-based, Acinetobacter baumannii
How it was run: as §1

[8] = system: P. aeruginosa; assay: microbe, parasite or virus in culture; assay type: cell-based, Pseudomonas aeruginosa
How it was run: as §1

[9] = system: A. baumannii; assay: MIC of antimicrobial peptide during combined treatment with antibiotic; assay type: cell-based, Acinetobacter baumannii
How it was run: as §2

[10] = system: MDRAB 12035; assay: as above; assay type: cell-based, Acinetobacter baumannii; conditions: erythromycin 4 μg/ml (Conc./MIC 1/8)
How it was run: as §2

[11] = vancomycin 512 μg/ml (Conc./MIC 1/2)
[12] = vancomycin 1024 μg/ml (Conc./MIC 1)

CC[C@H](C)[C@H](NC(=O)[C@H](CCCCN)NC(=O)[C@H](Cc1c[nH]c2ccccc12)NC(=O)[C@@H](N)CCCNC(=N)N)C(=O)N[C@@H](Cc1ccccc1)C(=O)N[C@@H](CCCCN)C(=O)N[C@@H](CCCCN)C(=O)N[C@H](C(=O)N1CCC[C@H]1C(=O)N[C@@H](CCCCN)C(=O)N[C@@H](Cc1ccccc1)C(=O)N[C@@H](CC(C)C)C(=O)N[C@@H](Cc1c[nH]cn1)C(=O)N[C@@H](CCC(=O)O)C(=O)N[C@@H](C)C(=O)N[C@@H](CCCCN)C(=O)N[C@@H](CCCCN)C(=O)N[C@@H](Cc1ccccc1)C(N)=O)[C@@H](C)CC [PapMA-11, RWK IFK KIP KFL HEA KKF-NH2] (H-RWKIFKKIPKFLHEAKKF-NH2; N-terminus assumed)
Minimal inhibitory concentration MIC [1]: >128 mg/L
Synergistic effect of antibacterial activity with existing antibiotics compared with PapMA-1 ([2]; E. coli and MDREC1229): level similar to that of the PapMA-1 peptide
Antibiotic MIC, Erythromycin ([2]; erythromycin combined with peptide at 1 μg/ml): 64 mg/L
Antibiotic MIC, Erythromycin ([2]; erythromycin combined with peptide at 2 μg/ml): 64 mg/L
Antibiotic MIC, Erythromycin ([2]; erythromycin combined with peptide at 4 μg/ml): 16 mg/L
Antibiotic MIC, Erythromycin ([2]; erythromycin combined with peptide at 6 μg/ml): 4 mg/L
Antibiotic MIC, Erythromycin ([2]; erythromycin combined with peptide at 8 μg/ml): 1 mg/L
Antibiotic MIC, Erythromycin ([2]; erythromycin combined with peptide at 16 μg/ml): 0.25 mg/L
Antibiotic MIC, Erythromycin ([2]; erythromycin combined with peptide at 32 μg/ml): 0.125 mg/L
Antibiotic MIC, Erythromycin ([2]; erythromycin combined with peptide at 64 μg/ml): 0 mg/L
Antibiotic MIC, Linezolid ([2]; linezolid combined with peptide at 1 μg/ml): >128 mg/L
Antibiotic MIC, Linezolid ([2]; linezolid combined with peptide at 2 μg/ml): 128 mg/L
Antibiotic MIC, Linezolid ([2]; linezolid combined with peptide at 4 μg/ml): 128 mg/L
Antibiotic MIC, Linezolid ([2]; linezolid combined with peptide at 6 μg/ml): 32 mg/L
Antibiotic MIC, Linezolid ([2]; linezolid combined with peptide at 8 μg/ml): 32 mg/L
Antibiotic MIC, Linezolid ([2]; linezolid combined with peptide at 16 μg/ml): 16 mg/L
Antibiotic MIC, Linezolid ([2]; linezolid combined with peptide at 32 μg/ml): 8 mg/L
Antibiotic MIC, Linezolid ([2]; linezolid combined with peptide at 64 μg/ml): 0 mg/L
Antibiotic MIC, Vancomycin ([2]; vancomycin combined with peptide at 1 μg/ml): >128 mg/L
Antibiotic MIC, Vancomycin ([2]; vancomycin combined with peptide at 2 μg/ml): >128 mg/L
Antibiotic MIC, Vancomycin ([2]; vancomycin combined with peptide at 4 μg/ml): >128 mg/L
Antibiotic MIC, Vancomycin ([2]; vancomycin combined with peptide at 6 μg/ml): 32 mg/L
Antibiotic MIC, Vancomycin ([2]; vancomycin combined with peptide at 8 μg/ml): 16 mg/L
Antibiotic MIC, Vancomycin ([2]; vancomycin combined with peptide at 16 μg/ml): 8 mg/L
Antibiotic MIC, Vancomycin ([2]; vancomycin combined with peptide at 32 μg/ml): 4 mg/L
Antibiotic MIC, Vancomycin ([2]; vancomycin combined with peptide at 64 μg/ml): 0 mg/L
Minimal inhibitory concentration MIC [3]: 64 mg/L (≈ 27.3 µM)
Peptide MIC ([4]; with Erythromycin […] (Conc./MIC 1)): 0 mg/L
Peptide MIC ([4]; with Linezolid […] (Conc./MIC 1)): 0 mg/L
Peptide MIC ([4]; with Vancomycin 1024 μg/ml (Conc./MIC 1)): 0 mg/L
Peptide MIC during treatment with antibiotic ([5]; erythromycin 32 μg/ml (Conc./MIC 1/8)): 4 mg/L
Peptide MIC during treatment with antibiotic ([5]; erythromycin 64 μg/ml (Conc./MIC 1/4)): 2 mg/L
Peptide MIC during treatment with antibiotic ([5]; erythromycin […] (Conc./MIC 1)): 0 mg/L
Peptide MIC during treatment with antibiotic ([5]; erythromycin […] (Conc./MIC 1/2)): 1 mg/L
Peptide MIC during treatment with antibiotic ([5]; linezolid 64 μg/ml (Conc./MIC 1/8)): 8 mg/L
Peptide MIC during treatment with antibiotic ([5]; linezolid 512 μg/ml (Conc./MIC 1)): 0 mg/L
Peptide MIC during treatment with antibiotic ([5]; linezolid […] (Conc./MIC 1/2)): 2 mg/L
Peptide MIC during treatment with antibiotic ([5]; linezolid […] (Conc./MIC 1/4)): 4 mg/L
Peptide MIC during treatment with antibiotic [5, 11]: 2 mg/L
Peptide MIC during treatment with antibiotic [5, 12]: 1 mg/L
Peptide MIC during treatment with antibiotic ([5]; vancomycin […] (Conc./MIC 1/4)): 4 mg/L
Peptide MIC during treatment with antibiotic ([5]; vancomycin […] (Conc./MIC 1/8)): 8 mg/L
Minimal inhibitory concentration MIC [6]: 64 mg/L (≈ 27.3 µM)
Peptide MIC, peptide alone [6]: 64 mg/L
Minimal inhibitory concentration MIC [7]: 64 mg/L (≈ 27.3 µM)
Peptide MIC, peptide alone [7]: 64 mg/L
Minimal inhibitory concentration MIC [8]: 128 mg/L (≈ 54.6 µM)
Peptide MIC during treatment with antibiotic ([9]; erythromycin 4 μg/ml (Conc./MIC 1/8)): 4 mg/L
Peptide MIC during treatment with antibiotic ([9]; erythromycin 8 μg/ml (Conc./MIC 1/4)): 4 mg/L
Peptide MIC during treatment with antibiotic ([9]; erythromycin 16 μg/ml (Conc./MIC 1/2)): 2 mg/L
Peptide MIC during treatment with antibiotic ([9]; erythromycin 32 μg/ml (Conc./MIC 1)): 0 mg/L
Peptide MIC during treatment with antibiotic ([9]; linezolid 32 μg/ml (Conc./MIC 1/8)): 8 mg/L
Peptide MIC during treatment with antibiotic ([9]; linezolid 64 μg/ml (Conc./MIC 1/4)): 4 mg/L
Peptide MIC during treatment with antibiotic ([9]; linezolid […] (Conc./MIC 1)): 0 mg/L
Peptide MIC during treatment with antibiotic ([9]; linezolid […] (Conc./MIC 1/2)): 2 mg/L
Peptide MIC during treatment with antibiotic [9, 11]: 0.25 mg/L
Peptide MIC during treatment with antibiotic [9, 12]: 0 mg/L
Peptide MIC during treatment with antibiotic ([9]; vancomycin […] (Conc./MIC 1/4)): 0.5 mg/L
Peptide MIC during treatment with antibiotic ([9]; vancomycin […] (Conc./MIC 1/8)): 2 mg/L
Peptide MIC during treatment with erythromycin [10]: 4 mg/L
